Reference: patent publication US9707305B2, “Formulas for diagnosing and treating hormone-dependent cancers and cancers of the organs responsible for steroid hormone synthesis” (Commissariat à l'énergie atomique et aux énergies …, priority 2011, dated 2017)

Assay: Biodistribution of the nano-emulsion of Example 1.1 (radioactivity and fluorescence per organ)
Format: in vivo
Method: In the following examples, the radioactivity was counted with the TRiCarb Counter (Ref: Packard, Liquid Scintillation Analyzers; Models 2200CA).
Fluobeam 700 (Fluoptics) is the apparatus with which the whole of the organs from the biodistribution were analyzed in fluorescence as well as the one with which the biodistribution kinetics of the nano-emulsions were established in vivo. This imaging system allows viewing of the fluorescence in spectral bands from 700 to 850 nm for a 650 nm excitation. The apparatus consists of an electric case containing the laser of class 3B, its power supply and an optical head containing the CCD camera.
The nano-emulsions of Example 1 were injected into FVB female and male mice. As a comparison, a mixture of three tracers ([3H]CHE, [14C]CO and DiD) (not formulated as a nano-emulsion) was injected in order to observe the distribution of the tracers in the absence of droplets being used as a distribution carrier.
Tables 6 to 14 provide the biodistribution results of each tracer ([3H]CHE, [14C]CO and DiD) expressed as a percentage of the dose injected per gram of tissue (or [3H]CHE and [14C]CO) or as fluorescence intensity (for DiD) depending on the organ of the mouse, 15 minutes (Table 6), 2 hours (Table 7), 4 hours (Table 8), 6 hours (Table 9), 16 hours (Table 10), 24 hours (Table 11), 72 hours (Table 12), 120 hours (Table 13) and 168 hours (Table 14), after injection into an FVB female mouse of the nano-emulsion of Example 1.1. (nano-emulsion according to the invention comprising the three tracers ([3H]CHE, [14C]CO and DiD).

[1] = 15 min after injection of nano-emulsion of Example 1.1, FVB female mouse
[2] = 2 h after injection of nano-emulsion of Example 1.1, FVB female mouse
[3] = 4 h after injection of nano-emulsion of Example 1.1, FVB female mouse
[4] = 16 h (Table 9 head) after injection of nano-emulsion of Example 1.1, FVB female mouse
[5] = 24 h (Table 10 head) after injection of nano-emulsion of Example 1.1, FVB female mouse
[6] = 48 h (Table 11 head) after injection of nano-emulsion of Example 1.1, FVB female mouse
[7] = 72 h after injection of nano-emulsion of Example 1.1, FVB female mouse
[8] = 120 h after injection of nano-emulsion of Example 1.1, FVB female mouse
[9] = 168 h after injection of nano-emulsion of Example 1.1, FVB female mouse

## CCCCCCCCCCCCCCCCCCN1/C(=C/C=C/C=C/C2=[N+](CCCCCCCCCCCCCCCCCC)c3ccccc3C2(C)C)C(C)(C)c2ccccc21.[O-][Cl+3]([O-])([O-])[O-] [DiD, l,r-dioctadécyl-3,3,3′,3′-tetramethylindodicarbocyanine (DiD) perchlorate]
[1]
  fluorescence intensity, Adrenal glands (MEAN): 457 photons per pixel, reduced to
  fluorescence intensity, Brain (MEAN): 145 photons per pixel, reduced to
  fluorescence intensity, Fat (MEAN): 147 photons per pixel, reduced to
  fluorescence intensity, Heart (MEAN): 451 photons per pixel, reduced to
  fluorescence intensity, Intestine (MEAN): 300 photons per pixel, reduced to
  fluorescence intensity, Kidney (MEAN): 228 photons per pixel, reduced to
  fluorescence intensity, Liver (MEAN): 979 photons per pixel, reduced to
  fluorescence intensity, Lung (MEAN): 618 photons per pixel, reduced to
  fluorescence intensity, Muscle (MEAN): 1 photons per pixel, reduced to
  fluorescence intensity, Ovary (MEAN): 484 photons per pixel, reduced to
  fluorescence intensity, Pancreas (MEAN): 216 photons per pixel, reduced to
  fluorescence intensity, Salivary glands (MEAN): 59 photons per pixel, reduced to
  fluorescence intensity, Spleen (MEAN): 727 photons per pixel, reduced to
  fluorescence intensity, Uterus (MEAN): 178 photons per pixel, reduced to
[2]
  fluorescence intensity, Adrenal glands (MEAN): 1050 photons per pixel, reduced to
  fluorescence intensity, Brain (MEAN): 250 photons per pixel, reduced to
  fluorescence intensity, Fat (MEAN): 247 photons per pixel, reduced to
  fluorescence intensity, Heart (MEAN): 389 photons per pixel, reduced to
  fluorescence intensity, Intestine (MEAN): 637 photons per pixel, reduced to
  fluorescence intensity, Kidneys (MEAN): 473 photons per pixel, reduced to
  fluorescence intensity, Liver (MEAN): 1421 photons per pixel, reduced to
  fluorescence intensity, Lung (MEAN): 727 photons per pixel, reduced to
  fluorescence intensity, Muscle (MEAN): 213 photons per pixel, reduced to
  fluorescence intensity, Ovary (MEAN): 1807 photons per pixel, reduced to
  fluorescence intensity, Pancreas (MEAN): 399 photons per pixel, reduced to
  fluorescence intensity, Salivary glands (MEAN): 288 photons per pixel, reduced to
  fluorescence intensity, Spleen (MEAN): 805 photons per pixel, reduced to
  fluorescence intensity, Uterus (MEAN): 814 photons per pixel, reduced to
[3]
  fluorescence intensity, Adrenal glands (MEAN): 1754 photons per pixel, reduced to
  fluorescence intensity, Brain (MEAN): 279 photons per pixel, reduced to
  fluorescence intensity, Fat (MEAN): 522 photons per pixel, reduced to
  fluorescence intensity, Heart (MEAN): 550 photons per pixel, reduced to
  fluorescence intensity, Intestine (MEAN): 974 photons per pixel, reduced to
  fluorescence intensity, Kidney (MEAN): 614 photons per pixel, reduced to
  fluorescence intensity, Liver (MEAN): 1845 photons per pixel, reduced to
  fluorescence intensity, Lungs (MEAN): 925 photons per pixel, reduced to
  fluorescence intensity, Muscle (MEAN): 236 photons per pixel, reduced to
  fluorescence intensity, Ovary (MEAN): 2781 photons per pixel, reduced to
  fluorescence intensity, Pancreas (MEAN): 527 photons per pixel, reduced to
  fluorescence intensity, Salivary glands (MEAN): 516 photons per pixel, reduced to
  fluorescence intensity, Spleen (MEAN): 955 photons per pixel, reduced to
  fluorescence intensity, Uterus (MEAN): 712 photons per pixel, reduced to
[4]
  fluorescence intensity, Adrenal glands (MEAN): 2355 photons per pixel, reduced to
  fluorescence intensity, Brain (MEAN): 259 photons per pixel, reduced to
  fluorescence intensity, Fat (MEAN): 532 photons per pixel, reduced to
  fluorescence intensity, Heart (MEAN): 444 photons per pixel, reduced to
  fluorescence intensity, Intestine (MEAN): 1139 photons per pixel, reduced to
  fluorescence intensity, Kidney (MEAN): 627 photons per pixel, reduced to
  fluorescence intensity, Liver (MEAN): 1661 photons per pixel, reduced to
  fluorescence intensity, Lungs (MEAN): 592 photons per pixel, reduced to
  fluorescence intensity, Muscle (MEAN): 289 photons per pixel, reduced to
  fluorescence intensity, Ovary (MEAN): 2915 photons per pixel, reduced to
  fluorescence intensity, Pancreas (MEAN): 564 photons per pixel, reduced to
  fluorescence intensity, Salivary glands (MEAN): 641 photons per pixel, reduced to
  fluorescence intensity, Spleen (MEAN): 978 photons per pixel, reduced to
  fluorescence intensity, Uterus (MEAN): 1759 photons per pixel, reduced to
[5]
  fluorescence intensity, Adrenal glands (MEAN): 2624 photons per pixel, reduced to
  fluorescence intensity, Brain (MEAN): 239 photons per pixel, reduced to
  fluorescence intensity, Fat (MEAN): 553 photons per pixel, reduced to
  fluorescence intensity, Heart (MEAN): 288 photons per pixel, reduced to
  fluorescence intensity, Intestine (MEAN): 777 photons per pixel, reduced to
  fluorescence intensity, Kidney (MEAN): 599 photons per pixel, reduced to
  fluorescence intensity, Liver (MEAN): 1675 photons per pixel, reduced to
  fluorescence intensity, Lung (MEAN): 667 photons per pixel, reduced to
  fluorescence intensity, Muscle (MEAN): 161 photons per pixel, reduced to
  fluorescence intensity, Ovary (MEAN): 3173 photons per pixel, reduced to
  fluorescence intensity, Pancreas (MEAN): 446 photons per pixel, reduced to
  fluorescence intensity, Salivary glands (MEAN): 411 photons per pixel, reduced to
  fluorescence intensity, Spleen (MEAN): 774 photons per pixel, reduced to
  fluorescence intensity, Uterus (MEAN): 971 photons per pixel, reduced to
[6]
  fluorescence intensity, Adrenal glands (MEAN): 1484 photons per pixel, reduced to
  fluorescence intensity, Brain (MEAN): 51 photons per pixel, reduced to
  fluorescence intensity, Fat (MEAN): 208 photons per pixel, reduced to
  fluorescence intensity, Heart (MEAN): 122 photons per pixel, reduced to
  fluorescence intensity, Intestine (MEAN): 481 photons per pixel, reduced to
  fluorescence intensity, Kidney (MEAN): 555 photons per pixel, reduced to
  fluorescence intensity, Liver (MEAN): 1868 photons per pixel, reduced to
  fluorescence intensity, Lungs (MEAN): 212 photons per pixel, reduced to
  fluorescence intensity, Muscle (MEAN): 32 photons per pixel, reduced to
  fluorescence intensity, Ovary (MEAN): 4018 photons per pixel, reduced to
  fluorescence intensity, Pancreas (MEAN): 202 photons per pixel, reduced to
  fluorescence intensity, Salivary glands (MEAN): 268 photons per pixel, reduced to
  fluorescence intensity, Spleen (MEAN): 342 photons per pixel, reduced to
  fluorescence intensity, Uterus (MEAN): 951 photons per pixel, reduced to
[7]
  fluorescence intensity, Adrenal glands (MEAN): 1135 photons per pixel, reduced to
  fluorescence intensity, Brain (MEAN): 43 photons per pixel, reduced to
  fluorescence intensity, Fat (MEAN): 159 photons per pixel, reduced to
  fluorescence intensity, Heart (MEAN): 113 photons per pixel, reduced to
  fluorescence intensity, Intestine (MEAN): 297 photons per pixel, reduced to
  fluorescence intensity, Kidney (MEAN): 365 photons per pixel, reduced to
  fluorescence intensity, Liver (MEAN): 1136 photons per pixel, reduced to
  fluorescence intensity, Lungs (MEAN): 120 photons per pixel, reduced to
  fluorescence intensity, Muscle (MEAN): 3 photons per pixel, reduced to
  fluorescence intensity, Ovary (MEAN): 2397 photons per pixel, reduced to
  fluorescence intensity, Pancreas (MEAN): 102 photons per pixel, reduced to
  fluorescence intensity, Salivary glands (MEAN): 237 photons per pixel, reduced to
  fluorescence intensity, Spleen (MEAN): 330 photons per pixel, reduced to
  fluorescence intensity, Uterus (MEAN): 514 photons per pixel, reduced to
[8]
  fluorescence intensity, Adrenal gland (MEAN): 1688 photons per pixel, reduced to
  fluorescence intensity, Brain (MEAN): 90 photons per pixel, reduced to
  fluorescence intensity, Fat (MEAN): 176 photons per pixel, reduced to
  fluorescence intensity, Heart (MEAN): 80 photons per pixel, reduced to
  fluorescence intensity, Intestine (MEAN): 279 photons per pixel, reduced to
  fluorescence intensity, Kidney (MEAN): 383 photons per pixel, reduced to
  fluorescence intensity, Liver (MEAN): 996 photons per pixel, reduced to
  fluorescence intensity, Lungs (MEAN): 53 photons per pixel, reduced to
  fluorescence intensity, Muscle (MEAN): 254 photons per pixel, reduced to
  fluorescence intensity, Ovary (MEAN): 2319 photons per pixel, reduced to
  fluorescence intensity, Pancreas (MEAN): 297 photons per pixel, reduced to
  fluorescence intensity, Salivary glands (MEAN): 120 photons per pixel, reduced to
  fluorescence intensity, Spleen (MEAN): 229 photons per pixel, reduced to
  fluorescence intensity, Uterus (MEAN): 563 photons per pixel, reduced to
[9]
  fluorescence intensity, Adrenal glands (MEAN): 660.62 photons per pixel, reduced to
  fluorescence intensity, Brain (MEAN): 40.28 photons per pixel, reduced to
  fluorescence intensity, Fat (MEAN): 164.55 photons per pixel, reduced to
  fluorescence intensity, Heart (MEAN): 117.29 photons per pixel, reduced to
  fluorescence intensity, Intestine (MEAN): 214.02 photons per pixel, reduced to
  fluorescence intensity, Kidneys (MEAN): 391.45 photons per pixel, reduced to
  fluorescence intensity, Liver (MEAN): 676.60 photons per pixel, reduced to
  fluorescence intensity, Lungs (MEAN): 1.35 photons per pixel, reduced to
  fluorescence intensity, Muscle (MEAN): 16.21 photons per pixel, reduced to
  fluorescence intensity, Ovary (MEAN): 1614.45 photons per pixel, reduced to
  fluorescence intensity, Pancreas (MEAN): 125.11 photons per pixel, reduced to
  fluorescence intensity, Salivary glands (MEAN): 216.84 photons per pixel, reduced to
  fluorescence intensity, Spleen (MEAN): 171.93 photons per pixel, reduced to
  fluorescence intensity, Uterus (MEAN): 697.92 photons per pixel, reduced to
